Measurements reported in patent US20090263488A1, “PRESSURISED METERED DOSE INHALERS CONTAINING SOLUTIONS OF BETA-2 AGONISTS” (Chiesi Farmaceutici S.p.A., priority 2002, published 2009).

Test: Stability study of TA 2005 HFA solution formulation in cans
Format: physicochemical
Conditions: HFA formulation able to deliver 4 μg per actuation; cans stored upright at 5° C.; after nine months
Description: A stability study on a formulation able to deliver 4 μg per actuation was initiated storing the cans upright at 5° C.

- TA 2005 assay: higher than 95%
Structure (SMILES): COc1ccc(C[C@@H](C)NC[C@H](O)c2ccc(O)c3[nH]c(=O)ccc23)cc1 [TA 2005, 8-hydroxy-5-[(1R)-1-hydroxy-2-[[(1R)-2-(4-methoxyphenyl)-1-methylethyl]amino]ethyl]-2(1H)-quinolinone]
